# Measurements from US20230365592A1 (Agios Pharmaceuticals, Inc., priority 2022, published 2023).
# Biological target: T1, human PAH with the R408W mutation (Homo sapiens, UniProt P00439, R408W)
# T1 construct: expressed in transfected cells
# T1 sequence (P00439 1-452 R408W): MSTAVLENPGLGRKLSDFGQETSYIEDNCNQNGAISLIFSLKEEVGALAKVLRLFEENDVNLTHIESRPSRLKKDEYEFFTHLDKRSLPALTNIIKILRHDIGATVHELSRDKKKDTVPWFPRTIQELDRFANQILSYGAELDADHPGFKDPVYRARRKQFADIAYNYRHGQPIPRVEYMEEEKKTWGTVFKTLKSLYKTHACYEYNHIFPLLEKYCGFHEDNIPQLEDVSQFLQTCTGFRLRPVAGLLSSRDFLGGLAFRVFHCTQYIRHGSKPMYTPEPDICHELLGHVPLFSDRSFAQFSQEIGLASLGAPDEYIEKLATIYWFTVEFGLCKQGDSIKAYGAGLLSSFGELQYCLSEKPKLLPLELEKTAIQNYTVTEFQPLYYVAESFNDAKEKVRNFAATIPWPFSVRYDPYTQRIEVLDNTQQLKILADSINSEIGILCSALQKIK
# Assay: Cell Based Phenylalanine Flux Assay;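 also: after compound treatment, cells received sepiapterin plus isotope-labelled Phenylalanine for 4 hours, then labelled Tyrosine in the medium was quantified, 10-point 2-fold dilution series run in duplicate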
# Settings: A375 cells expressing R408W PAH; 24 hrs with compound, then 20 µM sepiapterin and 800 µM 13C9,15N-Phenylalanine for 4 hours; 13C-Tyrosine by LC-MS; average where tested multiple times; read-out: AC50
row,AC50 [µM],SMILES
1,1 to 5,CC(C)(O)c1nnc(C(=O)N2CCc3[nH]cnc3C2c2cc3cccc(C(F)F)n3n2)o1 (stereo not drawn)
2,1 to 5,Fc1cccc(-c2nnc(N3CCc4[nH]cnc4C3c3cc4ccccn4n3)o2)n1 (stereo not drawn)
3,1 to 5,O=C(c1cnco1)N1CCc2[nH]cnc2C1c1cc2cc(C(F)(F)F)ccn2n1 (stereo not drawn)
4,> 5,CC(C)c1nnc(N2CCc3[nH]cnc3C2c2cc3c(C4CC4)cccn3n2)o1 (stereo not drawn)
5,1 to 5,O=C(c1cnn2ccccc12)N1CCc2[nH]cnc2C1c1cc2cccc(C(F)F)n2n1 (stereo not drawn)
6,> 5,Cc1cccc2cc(C3c4nc[nH]c4CCN3c3nnc(C4CC4)o3)nn12 (stereo not drawn)
7,> 5,O=C(c1nnc(-c2cc[nH]n2)o1)N1CCc2[nH]cnc2C1c1cc2ccccn2n1 (stereo not drawn)
8,1 to 5,Cn1nc(C2CC2)nc1C(=O)N1CCc2[nH]cnc2C1c1cc2cccc(Cl)n2n1 (stereo not drawn)
9,1 to 5,Cn1cc(-c2nc(C(F)F)c(C(=O)N3CCc4[nH]cnc4C3c3cc4ccccn4n3)o2)cn1 (stereo not drawn)

row,SMILES,AC50 [µM]
1,"CN(C)CCc1ccc2c(C(=O)N3CCc4[nH]cnc4[C@H]3c3cc4ccccn4n3)cnn2c1 (single isomer, unassigned)",> 5
2,CC(C)(F)c1nnc(C(=O)N2CCc3[nH]cnc3C2c2cc3cc(F)ccn3n2)o1 (stereo not drawn),1 to 5

# Same assay, conditions: A375 cells expressing human PAH R408W; 24 hrs compound incubation; 13C-Tyrosine by LC-MS; average where tested multiple times; read-out: AC50
row,AC50 [µM],SMILES
1,> 5,"CC(C)c1cccn2nc([C@H]3c4nc[nH]c4CCN3C(=O)c3nnc(-c4ncccc4F)o3)cc12 [Example 1907, (R)-(5-(3-fluoropyridin-2-yl)-1,3,4-oxadiazol-2-yl)(4-(4-isopropylpyrazolo[1,5-a]pyridin-2-yl)-1,4,6,7-tetrahydro-5H-imidazo[4,5-c]pyridin-5-yl)methanone]"
2,< 0.5,"O=C(c1nnc(C2CC2)o1)N1CCc2[nH]cnc2[C@H]1c1cc2c(C3CC3)cccn2n1 [Example 1838, (S)-(5-cyclopropyl-1,3,4-oxadiazol-2-yl)(4-(4-cyclopropylpyrazolo[1,5-a]pyridin-2-yl)-1,4,6,7-tetrahydro-5H-imidazo[4,5-c]pyridin-5-yl)methanone]"
3,< 0.5,"Cc1cccnc1-c1nnc(N2CCc3[nH]cnc3[C@H]2c2cc3c(C(F)(F)F)cccn3n2)o1 [Example 2276, (S)-2-(3-methylpyridin-2-yl)-5-(4-(4-(trifluoromethyl)pyrazolo[1,5-a]pyridin-2-yl)-1,4,6,7-tetrahydro-5H-imidazo[4,5-c]pyridin-5-yl)-1,3,4-oxadiazole]"
4,> 5,"Fc1cccnc1-c1nnc(N2CCc3[nH]cnc3[C@@H]2c2cc3ccccn3n2)o1 [Example 2339, (R)-2-(3-fluoropyridin-2-yl)-5-(4-(pyrazolo[1,5-a]pyridin-2-yl)-1,4,6,7-tetrahydro-5H-imidazo[4,5-c]pyridin-5-yl)-1,3,4-oxadiazole]"
5,< 0.5,"Cc1cccnc1-c1nnc(N2CCc3[nH]cnc3[C@H]2c2cc3ccccn3n2)o1 [Example 2267, (S)-2-(3-methylpyridin-2-yl)-5-(4-(pyrazolo[1,5-a]pyridin-2-yl)-1,4,6,7-tetrahydro-5H-imidazo[4,5-c]pyridin-5-yl)-1,3,4-oxadiazole]"
6,> 5,"Cc1ncccc1-c1nnc(N2CCc3[nH]cnc3[C@@H]2c2cc3c(C)cccn3n2)o1 [Example 2207, (R)-2-(4-(4-methylpyrazolo[1,5-a]pyridin-2-yl)-1,4,6,7-tetrahydro-5H-imidazo[4,5-c]pyridin-5-yl)-5-(2-methylpyridin-3-yl)-1,3,4-oxadiazole]"
7,1 to 5,"O=C(c1ccnn1C1CC1)N1CCc2[nH]cnc2[C@H]1c1cc2ccccn2n1 [Example 2386, (S)-(1-cyclopropyl-1H-pyrazol-5-yl)(4-(pyrazolo[1,5-a]pyridin-2-yl)-6,7-dihydro-1H-imidazo[4,5-c]pyridin-5(4H)-yl)methanone]"

# Same assay, conditions: A375 cells expressing human R408W PAH; 24 hrs compound incubation; 13C-Tyrosine by LC-MS; average where tested multiple times; read-out: AC50
row,AC50 [µM],SMILES
1,> 5,"CN(C)c1ccc2c(C(=O)N3CCc4[nH]cnc4[C@@H]3c3cc4c(F)cccn4n3)cnn2c1 [Example 1773, (R)-(6-(dimethylamino)pyrazolo[1,5-a]pyridin-3-yl)(4-(4-fluoropyrazolo[1,5-a]pyridin-2-yl)-6,7-dihydro-1H-imidazo[4,5-c]pyridin-5(4H)-yl)methanone]"
2,< 0.5,"O=C(c1nnc(C2CC2)o1)N1CCc2[nH]cnc2[C@H]1c1cc2c(C(F)(F)F)cccn2n1 [Example 942, (S)-(5-cyclopropyl-1,3,4-oxadiazol-2-yl)(4-(4-(trifluoromethyl)pyrazolo[1,5-a]pyridin-2-yl)-6,7-dihydro-1H-imidazo[4,5-c]pyridin-5(4H)-yl)methanone]"
3,1 to 5,"O=C(c1nnc(-c2cnn(C(F)(F)F)c2)o1)N1CCc2[nH]cnc2[C@@H]1c1cc2c(C(F)F)cccn2n1 [Example 1571, (R)-(4-(4-(difluoromethyl)pyrazolo[1,5-a]pyridin-2-yl)-6,7-dihydro-1H-imidazo[4,5-c]pyridin-5(4H)-yl)(5-(1-(trifluoromethyl)-1H-pyrazol-4-yl)-1,3,4-oxadiazol-2-yl)methanone]"
4,> 5,"Cc1ccc(-c2nnc(C(=O)N3CCc4[nH]cnc4[C@@H]3c3cc4c(C)cccn4n3)o2)nc1 [Example 870, (R)-(4-(4-methylpyrazolo[1,5-a]pyridin-2-yl)-6,7-dihydro-1H-imidazo[4,5-c]pyridin-5(4H)-yl)(5-(5-methylpyridin-2-yl)-1,3,4-oxadiazol-2-yl)methanone]"
5,> 5,"Cc1cccn2nc([C@H]3c4nc[nH]c4CCN3C(=O)c3cnn4cc(-c5ccn(C)n5)ccc34)cc12 [Example 1620, (R)-(6-(1-methyl-1H-pyrazol-3-yl)pyrazolo[1,5-a]pyridin-3-yl)(4-(4-methylpyrazolo[1,5-a]pyridin-2-yl)-6,7-dihydro-1H-imidazo[4,5-c]pyridin-5(4H)-yl)methanone]"
6,> 5,"Cc1cccn2nc([C@H]3c4nc[nH]c4CCN3c3nc4ccccc4o3)cc12 [Example 1642, (R)-2-(4-(4-methylpyrazolo[1,5-a]pyridin-2-yl)-6,7-dihydro-1H-imidazo[4,5-c]pyridin-5(4H)-yl)benzo[d]oxazole]"
7,> 5,"Fc1cccn2nc([C@H]3c4nc[nH]c4CCN3c3ncccn3)cc12 [Example 1617, (R)-4-(4-fluoropyrazolo[1,5-a]pyridin-2-yl)-5-(pyrimidin-2-yl)-4,5,6,7-tetrahydro-1H-imidazo[4,5-c]pyridine]"
8,< 0.5,"O=C(c1cnn2cc(C3CC3)ccc12)N1CCc2[nH]cnc2[C@H]1c1cc2c(C(F)(F)F)cccn2n1 [Example 1716, (S)-(6-cyclopropylpyrazolo[1,5-a]pyridin-3-yl)(4-(4-(trifluoromethyl)pyrazolo[1,5-a]pyridin-2-yl)-6,7-dihydro-1H-imidazo[4,5-c]pyridin-5(4H)-yl)methanone]"
9,< 0.5,"Cn1cc(-c2nc(C(F)F)c(C(=O)N3CCc4[nH]cnc4[C@H]3c3cc4c(F)cccn4n3)o2)cn1 [Example 902, (S)-(4-(difluoromethyl)-2-(1-methyl-1H-pyrazol-4-yl)oxazol-5-yl)(4-(4-fluoropyrazolo[1,5-a]pyridin-2-yl)-6,7-dihydro-1H-imidazo[4,5-c]pyridin-5(4H)-yl)methanone]"
10,1 to 5,"CC(C)(F)c1nnc(C(=O)N2CCc3[nH]cnc3[C@@H]2c2cc3c(C(F)(F)F)cccn3n2)o1 [Example 951, (R)-(5-(2-fluoropropan-2-yl)-1,3,4-oxadiazol-2-yl)(4-(4-(trifluoromethyl)pyrazolo[1,5-a]pyridin-2-yl)-6,7-dihydro-1H-imidazo[4,5-c]pyridin-5(4H)-yl)methanone]"
11,1 to 5,"Cc1ccc2c(C(=O)N3CCc4[nH]cnc4[C@@H]3c3cc4cccc(F)n4n3)cnn2c1 [Example 1787, (R)-(4-(7-fluoropyrazolo[1,5-a]pyridin-2-yl)-6,7-dihydro-1H-imidazo[4,5-c]pyridin-5(4H)-yl)(6-methylpyrazolo[1,5-a]pyridin-3-yl)methanone]"
12,1 to 5,"O=C(c1oc(-c2ccccn2)nc1C(F)F)N1CCc2[nH]cnc2[C@@H]1c1cc2ccccn2n1 [Example 645, (R)-(4-(difluoromethyl)-2-(pyridin-2-yl)oxazol-5-yl)(4-(pyrazolo[1,5-a]pyridin-2-yl)-6,7-dihydro-1H-imidazo[4,5-c]pyridin-5(4H)-yl)methanone]"
13,1 to 5,"Cc1cccc(-c2nnc(C(=O)N3CCc4[nH]cnc4[C@@H]3c3cc4c(C(F)(F)F)cccn4n3)o2)n1 [Example 1432, (R)-(5-(6-methylpyridin-2-yl)-1,3,4-oxadiazol-2-yl)(4-(4-(trifluoromethyl)pyrazolo[1,5-a]pyridin-2-yl)-6,7-dihydro-1H-imidazo[4,5-c]pyridin-5(4H)-yl)methanone]"
14,1 to 5,"CC(C)c1nnc(C(=O)N2CCc3[nH]cnc3[C@@H]2c2cc3ccccn3n2)o1 [Example 1449, (R)-(5-isopropyl-1,3,4-oxadiazol-2-yl)(4-(pyrazolo(1,5-a]pyridin-2-yl)-6,7-dihydro-1H-imidazo[4,5-c]pyridin-5(4H)-yl)methanone]"
15,1 to 5,"O=C(c1ocnc1C(F)F)N1CCc2[nH]cnc2[C@@H]1c1cc2ccccn2n1 [Example 631, (R)-(4-(difluoromethyl)oxazol-5-yl)(4-(pyrazolo[1,5-a]pyridin-2-yl)-6,7-dihydro-1H-imidazo[4,5-c]pyridin-5(4H)-yl)methanone]"
